Experiments:
Test in all cases: KINOMEscan
Assay type in all cases: binding
Conditions in all cases: read-out: % Ctrl
CAMKK1 = biological target: T1, CAMKK1 (Homo sapiens, UniProt Q8N5S9)
T1 construct: purchased DiscoveRx KINOMEscan
How it was run: (§1)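 Competition binding panel of 442 non-mutant kinases: test compound at 5 and 10 μM competed with an active-site-directed ligand for 1 h with shaking. Bound kinase was eluted with 0.5 μM ligand and quantified by qPCR; %Ctrl = (compound − positive control)/(DMSO − positive control) × 100, lower meaning tighter binding.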

PIM3 = biological target: T2, PIM3 (Homo sapiens, UniProt Q86V86)
T2 construct: purchased DiscoveRx KINOMEscan
How it was run: as §1

ERK5 = biological target: T3, ERK5 (Homo sapiens, UniProt Q13164)
T3 construct: purchased DiscoveRx KINOMEscan
How it was run: as §1

ERBB4 = biological target: T4, ERBB4 (Homo sapiens, UniProt Q15303)
T4 construct: purchased DiscoveRx KINOMEscan
How it was run: as §1

EPHA7 = biological target: T5, EPHA7 (Homo sapiens, UniProt Q15375)
T5 construct: purchased DiscoveRx KINOMEscan
How it was run: as §1

IKK-alpha = biological target: T6, IKK-alpha (Homo sapiens, UniProt O15111)
T6 construct: purchased DiscoveRx KINOMEscan
How it was run: as §1

CLK4 = biological target: T7, CLK4 (Homo sapiens, UniProt Q9HAZ1)
T7 construct: purchased DiscoveRx KINOMEscan
How it was run: as §1

STK16 = biological target: T8, STK16 (Homo sapiens, UniProt O75716)
T8 construct: purchased DiscoveRx KINOMEscan
How it was run: as §1

AMPK-alpha1 = biological target: T9, AMPK-alpha1 (Homo sapiens, UniProt Q13131)
T9 construct: purchased DiscoveRx KINOMEscan
How it was run: as §1

RIPK5 = biological target: T10, RIPK5 (Homo sapiens, UniProt Q6XUX3)
T10 construct: purchased DiscoveRx KINOMEscan
How it was run: as §1

CAMK2G = biological target: T11, CAMK2G (Homo sapiens, UniProt Q13555)
T11 construct: purchased DiscoveRx KINOMEscan
How it was run: as §1

SGK3 = biological target: T12, SGK3 (Homo sapiens, UniProt Q96BR1)
T12 construct: purchased DiscoveRx KINOMEscan
How it was run: as §1

TGFBR1 = biological target: T13, TGFBR1 (Homo sapiens, UniProt P36897)
T13 construct: purchased DiscoveRx KINOMEscan
How it was run: as §1

ROCK2 = biological target: T14, ROCK2 (Homo sapiens, UniProt O75116)
T14 construct: purchased DiscoveRx KINOMEscan
T14 sequence (O75116 whole entry): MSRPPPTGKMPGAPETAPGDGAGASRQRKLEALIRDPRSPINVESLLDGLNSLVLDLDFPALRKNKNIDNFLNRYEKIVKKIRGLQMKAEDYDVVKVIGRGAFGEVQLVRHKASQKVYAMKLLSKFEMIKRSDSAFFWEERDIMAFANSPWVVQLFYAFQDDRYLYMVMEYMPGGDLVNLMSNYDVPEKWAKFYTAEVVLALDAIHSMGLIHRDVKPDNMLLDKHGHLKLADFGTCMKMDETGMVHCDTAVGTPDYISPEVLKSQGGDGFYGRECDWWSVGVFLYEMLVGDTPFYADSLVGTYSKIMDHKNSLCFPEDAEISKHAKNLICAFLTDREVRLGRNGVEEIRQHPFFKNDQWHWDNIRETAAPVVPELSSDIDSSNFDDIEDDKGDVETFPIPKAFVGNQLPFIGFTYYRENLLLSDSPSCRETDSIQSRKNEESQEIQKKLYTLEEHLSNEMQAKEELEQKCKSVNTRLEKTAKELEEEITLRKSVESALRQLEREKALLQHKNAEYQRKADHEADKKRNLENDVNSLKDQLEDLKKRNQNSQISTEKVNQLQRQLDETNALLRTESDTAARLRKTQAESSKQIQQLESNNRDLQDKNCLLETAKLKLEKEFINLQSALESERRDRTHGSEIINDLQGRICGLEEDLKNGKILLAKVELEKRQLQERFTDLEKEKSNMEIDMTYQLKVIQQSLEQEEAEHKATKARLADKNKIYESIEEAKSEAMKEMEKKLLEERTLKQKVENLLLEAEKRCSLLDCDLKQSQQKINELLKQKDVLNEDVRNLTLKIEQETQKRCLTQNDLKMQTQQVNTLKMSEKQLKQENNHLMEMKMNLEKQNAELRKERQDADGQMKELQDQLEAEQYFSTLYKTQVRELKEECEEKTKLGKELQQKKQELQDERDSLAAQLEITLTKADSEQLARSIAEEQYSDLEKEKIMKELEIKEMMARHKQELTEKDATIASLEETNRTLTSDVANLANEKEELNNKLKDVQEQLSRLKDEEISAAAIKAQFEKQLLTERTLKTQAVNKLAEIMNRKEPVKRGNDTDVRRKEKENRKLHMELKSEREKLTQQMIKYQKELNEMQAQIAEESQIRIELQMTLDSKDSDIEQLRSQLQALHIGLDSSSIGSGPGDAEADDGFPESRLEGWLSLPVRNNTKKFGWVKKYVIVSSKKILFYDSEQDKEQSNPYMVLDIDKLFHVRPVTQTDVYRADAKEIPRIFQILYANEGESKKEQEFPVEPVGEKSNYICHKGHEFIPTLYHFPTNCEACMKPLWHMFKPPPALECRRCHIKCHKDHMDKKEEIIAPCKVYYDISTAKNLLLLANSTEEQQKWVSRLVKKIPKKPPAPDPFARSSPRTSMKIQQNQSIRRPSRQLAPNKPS
How it was run: as §1

INSRR = biological target: T15, INSRR (Homo sapiens, UniProt P14616)
T15 construct: purchased DiscoveRx KINOMEscan
How it was run: as §1

CLK2 = biological target: T16, CLK2 (Homo sapiens, UniProt P49760)
T16 construct: purchased DiscoveRx KINOMEscan
How it was run: as §1

MARK3 = biological target: T17, MARK3 (Homo sapiens, UniProt P27448)
T17 construct: purchased DiscoveRx KINOMEscan
T17 sequence (P27448 whole entry): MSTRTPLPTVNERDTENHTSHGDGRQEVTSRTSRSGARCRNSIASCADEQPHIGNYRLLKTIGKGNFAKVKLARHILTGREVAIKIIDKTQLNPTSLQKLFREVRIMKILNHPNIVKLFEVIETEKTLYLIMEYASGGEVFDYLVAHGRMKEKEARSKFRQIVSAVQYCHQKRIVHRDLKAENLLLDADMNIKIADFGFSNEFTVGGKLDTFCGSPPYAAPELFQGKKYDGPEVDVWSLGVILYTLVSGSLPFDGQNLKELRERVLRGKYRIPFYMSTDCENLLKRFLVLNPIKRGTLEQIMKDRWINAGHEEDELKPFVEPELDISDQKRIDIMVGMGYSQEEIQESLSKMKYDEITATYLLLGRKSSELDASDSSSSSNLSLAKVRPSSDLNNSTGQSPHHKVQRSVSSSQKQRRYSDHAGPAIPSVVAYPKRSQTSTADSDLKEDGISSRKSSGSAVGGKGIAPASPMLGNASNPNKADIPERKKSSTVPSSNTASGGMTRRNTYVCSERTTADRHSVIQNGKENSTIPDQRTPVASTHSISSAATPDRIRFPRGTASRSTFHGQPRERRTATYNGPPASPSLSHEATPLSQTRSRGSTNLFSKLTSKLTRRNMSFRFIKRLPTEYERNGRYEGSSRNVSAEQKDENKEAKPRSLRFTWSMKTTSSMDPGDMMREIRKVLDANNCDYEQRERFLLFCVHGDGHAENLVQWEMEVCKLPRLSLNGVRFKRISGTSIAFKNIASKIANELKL
How it was run: as §1

[1] = biological target: T18, RSK2(Kin.Dom.1-N-terminal) (Homo sapiens, UniProt P51812)
T18 construct: RSK2(Kin.Dom.1-N-terminal); purchased DiscoveRx KINOMEscan
How it was run: as §1

ANKK1 = biological target: T19, ANKK1 (Homo sapiens, UniProt Q8NFD2)
T19 construct: purchased DiscoveRx KINOMEscan
T19 sequence (Q8NFD2 whole entry): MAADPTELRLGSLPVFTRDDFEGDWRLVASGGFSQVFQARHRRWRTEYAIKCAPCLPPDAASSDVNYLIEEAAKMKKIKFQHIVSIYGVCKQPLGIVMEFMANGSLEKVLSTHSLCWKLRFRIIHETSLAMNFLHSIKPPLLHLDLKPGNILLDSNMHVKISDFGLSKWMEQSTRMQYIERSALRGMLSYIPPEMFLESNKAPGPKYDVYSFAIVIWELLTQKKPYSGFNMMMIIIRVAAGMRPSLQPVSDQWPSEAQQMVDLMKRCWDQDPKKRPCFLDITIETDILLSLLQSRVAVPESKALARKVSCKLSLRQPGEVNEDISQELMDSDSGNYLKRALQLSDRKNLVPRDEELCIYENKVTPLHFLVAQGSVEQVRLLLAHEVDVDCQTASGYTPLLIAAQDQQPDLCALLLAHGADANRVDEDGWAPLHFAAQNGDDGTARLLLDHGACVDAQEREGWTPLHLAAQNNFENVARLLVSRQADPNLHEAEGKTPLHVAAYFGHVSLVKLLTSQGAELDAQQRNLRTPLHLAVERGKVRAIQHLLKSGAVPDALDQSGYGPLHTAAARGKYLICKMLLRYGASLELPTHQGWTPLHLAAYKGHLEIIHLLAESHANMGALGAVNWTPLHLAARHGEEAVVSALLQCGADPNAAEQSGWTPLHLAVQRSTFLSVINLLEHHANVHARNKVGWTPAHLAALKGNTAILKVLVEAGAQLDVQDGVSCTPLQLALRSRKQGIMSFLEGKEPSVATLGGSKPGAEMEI
How it was run: as §1

TSSK1B = biological target: T20, TSSK1B (Homo sapiens, UniProt Q9BXA7)
T20 construct: purchased DiscoveRx KINOMEscan
How it was run: as §1

CAMK4 = biological target: T21, CAMK4 (Homo sapiens, UniProt Q16566)
T21 construct: purchased DiscoveRx KINOMEscan
How it was run: as §1

ARK5 = biological target: T22, ARK5 (Homo sapiens, UniProt O60285)
T22 construct: purchased DiscoveRx KINOMEscan
How it was run: as §1

AKT2 = biological target: T23, AKT2 (Homo sapiens, UniProt P31751)
T23 construct: purchased DiscoveRx KINOMEscan
How it was run: as §1

MELK = biological target: T24, MELK (Homo sapiens, UniProt Q14680)
T24 construct: purchased DiscoveRx KINOMEscan
How it was run: as §1

RET(V804M) = biological target: T25, RET(V804M) (Homo sapiens, UniProt P07949, V804M)
T25 construct: purchased DiscoveRx KINOMEscan

CAMKK2 = biological target: T26, CAMKK2 (Homo sapiens, UniProt Q96RR4)
T26 construct: purchased DiscoveRx KINOMEscan
T26 sequence (Q96RR4 whole entry): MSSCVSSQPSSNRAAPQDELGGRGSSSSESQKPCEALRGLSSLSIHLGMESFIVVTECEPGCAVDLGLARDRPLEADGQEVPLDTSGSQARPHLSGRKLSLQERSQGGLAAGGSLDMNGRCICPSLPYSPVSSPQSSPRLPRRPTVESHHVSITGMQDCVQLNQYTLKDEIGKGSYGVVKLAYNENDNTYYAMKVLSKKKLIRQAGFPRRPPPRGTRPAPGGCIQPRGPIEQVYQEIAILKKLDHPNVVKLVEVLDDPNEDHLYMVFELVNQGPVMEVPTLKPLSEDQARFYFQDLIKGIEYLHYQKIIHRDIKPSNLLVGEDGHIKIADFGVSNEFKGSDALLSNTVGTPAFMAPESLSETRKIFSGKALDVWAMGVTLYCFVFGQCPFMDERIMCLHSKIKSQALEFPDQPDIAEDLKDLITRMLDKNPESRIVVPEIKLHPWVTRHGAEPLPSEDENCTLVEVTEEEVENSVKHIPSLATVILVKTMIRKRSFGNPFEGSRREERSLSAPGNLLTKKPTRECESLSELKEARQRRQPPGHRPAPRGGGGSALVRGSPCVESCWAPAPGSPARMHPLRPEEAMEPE
How it was run: as §1

CIT = biological target: T27, CIT (Homo sapiens, UniProt O14578)
T27 construct: purchased DiscoveRx KINOMEscan
How it was run: as §1

PIK3CA(H1047Y) = biological target: T28, PIK3CA(H1047Y) (Homo sapiens, UniProt P42336, H1047Y)
T28 construct: purchased DiscoveRx KINOMEscan
T28 sequence (P42336 whole entry H1047Y): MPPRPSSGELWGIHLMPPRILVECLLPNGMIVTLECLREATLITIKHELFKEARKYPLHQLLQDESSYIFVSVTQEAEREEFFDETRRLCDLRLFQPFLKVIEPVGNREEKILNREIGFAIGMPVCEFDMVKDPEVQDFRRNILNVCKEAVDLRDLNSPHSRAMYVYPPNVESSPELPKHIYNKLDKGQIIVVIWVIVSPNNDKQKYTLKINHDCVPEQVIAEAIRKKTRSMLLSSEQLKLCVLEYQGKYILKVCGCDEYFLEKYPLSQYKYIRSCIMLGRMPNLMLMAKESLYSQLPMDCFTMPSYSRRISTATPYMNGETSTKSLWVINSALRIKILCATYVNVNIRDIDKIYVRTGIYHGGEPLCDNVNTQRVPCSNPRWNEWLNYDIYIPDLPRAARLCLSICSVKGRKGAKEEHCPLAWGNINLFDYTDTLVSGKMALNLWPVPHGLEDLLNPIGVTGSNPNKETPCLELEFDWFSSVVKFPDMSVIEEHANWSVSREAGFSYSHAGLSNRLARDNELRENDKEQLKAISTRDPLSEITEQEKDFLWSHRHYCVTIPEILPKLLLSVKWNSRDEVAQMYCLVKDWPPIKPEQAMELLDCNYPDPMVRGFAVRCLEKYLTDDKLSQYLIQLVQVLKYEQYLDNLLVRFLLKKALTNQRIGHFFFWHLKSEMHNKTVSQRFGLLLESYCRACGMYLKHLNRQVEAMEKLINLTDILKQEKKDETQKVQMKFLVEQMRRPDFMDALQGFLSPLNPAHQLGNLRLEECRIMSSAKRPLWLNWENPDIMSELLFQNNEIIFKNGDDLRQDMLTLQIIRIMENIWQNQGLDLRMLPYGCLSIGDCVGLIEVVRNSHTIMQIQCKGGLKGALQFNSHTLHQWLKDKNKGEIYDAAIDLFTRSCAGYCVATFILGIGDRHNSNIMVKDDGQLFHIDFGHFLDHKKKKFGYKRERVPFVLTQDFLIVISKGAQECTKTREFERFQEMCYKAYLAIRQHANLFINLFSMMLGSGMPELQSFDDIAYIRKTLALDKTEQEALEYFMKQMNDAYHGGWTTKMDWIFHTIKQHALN

DYRK2 = biological target: T29, DYRK2 (Homo sapiens, UniProt Q92630)
T29 construct: purchased DiscoveRx KINOMEscan
How it was run: as §1

MEK1 = biological target: T30, MEK1 (Homo sapiens, UniProt Q02750)
T30 construct: purchased DiscoveRx KINOMEscan
How it was run: as §1

## Cc1ccc(C2=Nc3cccnc3S(=O)(=O)c3ccccc32)cc1 [TBPT, 6-(p-tolyl)benzo[f] pyrido[2,3-b][1,4] thiazepine 11,11-dioxide]
CAMKK1; 5 μM
  remaining binding at 5 µM: 100%
CAMKK1; 10 μM
  remaining binding at 10 µM: 92%
PIM3; 5 μM
  remaining binding at 5 µM: 96%
PIM3; 10 μM
  remaining binding at 10 µM: 100%
ERK5; 5 μM
  remaining binding at 5 µM: 100%
ERK5; 10 μM
  remaining binding at 10 µM: 96%
ERBB4; 5 μM
  remaining binding at 5 µM: 93%
ERBB4; 10 μM
  remaining binding at 10 µM: 99%
EPHA7; 5 μM
  remaining binding at 5 µM: 93%
EPHA7; 10 μM
  remaining binding at 10 µM: 100%
IKK-alpha; 5 μM
  remaining binding at 5 µM: 56%
IKK-alpha; 10 μM
  remaining binding at 10 µM: 75%
CLK4; 5 μM
  remaining binding at 5 µM: 93%
CLK4; 10 μM
  remaining binding at 10 µM: 96%
STK16; 5 μM
  remaining binding at 5 µM: 99%
STK16; 10 μM
  remaining binding at 10 µM: 91%
AMPK-alpha1; 5 μM
  remaining binding at 5 µM: 100%
AMPK-alpha1; 10 μM
  remaining binding at 10 µM: 100%
RIPK5; 5 μM
  remaining binding at 5 µM: 58%
RIPK5; 10 μM
  remaining binding at 10 µM: 83%
CAMK2G; 5 μM
  remaining binding at 5 µM: 100%
CAMK2G; 10 μM
  remaining binding at 10 µM: 96%
SGK3; 5 μM
  remaining binding at 5 µM: 100%
SGK3; 10 μM
  remaining binding at 10 µM: 99%
TGFBR1; 5 μM
  remaining binding at 5 µM: 100%
TGFBR1; 10 μM
  remaining binding at 10 µM: 85%
ROCK2; 5 μM
  remaining binding at 5 µM: 100%
ROCK2; 10 μM
  remaining binding at 10 µM: 92%
INSRR; 5 μM
  remaining binding at 5 µM: 100%
INSRR; 10 μM
  remaining binding at 10 µM: 100%
CLK2; 5 μM
  remaining binding at 5 µM: 100%
CLK2; 10 μM
  remaining binding at 10 µM: 100%
MARK3; 5 μM
  remaining binding at 5 µM: 96%
MARK3; 10 μM
  remaining binding at 10 µM: 87%
[1]; 5 μM
  remaining binding at 5 µM: 98%
[1]; 10 μM
  remaining binding at 10 µM: 100%
ANKK1; 5 μM
  remaining binding at 5 µM: 91%
ANKK1; 10 μM
  remaining binding at 10 µM: 72%
TSSK1B; 5 μM
  remaining binding at 5 µM: 90%
TSSK1B; 10 μM
  remaining binding at 10 µM: 100%
CAMK4; 5 μM
  remaining binding at 5 µM: 100%
CAMK4; 10 μM
  remaining binding at 10 µM: 93%
ARK5; 5 μM
  remaining binding at 5 µM: 100%
ARK5; 10 μM
  remaining binding at 10 µM: 100%
AKT2; 5 μM
  remaining binding at 5 µM: 76%
AKT2; 10 μM
  remaining binding at 10 µM: 100%
MELK; 5 μM
  remaining binding at 5 µM: 100%
MELK; 10 μM
  remaining binding at 10 µM: 100%
RET(V804M); 5 μM
  remaining binding at 5 µM: 84%
RET(V804M); 10 μM
  remaining binding at 10 µM: 96%
CAMKK2; 5 μM
  remaining binding at 5 µM: 97%
CAMKK2; 10 μM
  remaining binding at 10 µM: 83%
CIT; 5 μM
  remaining binding at 5 µM: 98%
CIT; 10 μM
  remaining binding at 10 µM: 97%
PIK3CA(H1047Y); 5 μM
  remaining binding at 5 µM: 95%
PIK3CA(H1047Y); 10 μM
  remaining binding at 10 µM: 100%
DYRK2; 5 μM
  remaining binding at 5 µM: 93%
DYRK2; 10 μM
  remaining binding at 10 µM: 100%
MEK1; 5 μM
  remaining binding at 5 µM: 100%
MEK1; 10 μM
  remaining binding at 10 µM: 92%

— article PMC4823954, “From fighting depression to conquering tumors: a novel tricyclic thiazepine compound as a tubulin polymerization inhibitor” (Cell Death & Disease, 2016)
